From patent US9428726B2, “Modified host cells with efflux pumps” (priority 2010, dated 2016) come the findings set out here.

Where two headings read alike, the source gives them in different places.

Series [1] has as its system E. coli DH1 ΔacrAB. Particulars: for toxicity of the biofuel to cell growth: E. coli host, in words; for biofuel level that inhibited growth: added to pooled culture in M9 minimal medium, aimed at an inhibitory concentration that reduced growth by 25%. How it is done: In order to screen the efflux pump library against a variety of biofuels we devised a competition-based strategy to select for pumps that improved biofuel tolerance (FIG. 1A). Cells containing plasmids with individual pumps were grown separately and then pooled so that all individual strains were represented equally. This pooled culture was then grown both with and without biofuel, and maintained through serial dilutions every 10-14 hours over a total of 96 hours. At each dilution time point, plasmids from each culture were isolated and a custom microarray was used to quantify the amount of each efflux pump plasmid present in the culture (Methods).
Pooled culture glycerol stocks were used to inoculate M9 minimal medium with 30 μg/ml kanamycin and 10 μM IPTG. The culture was then divided into tubes to a final volume of 5 ml and biofuel was added directly to the tubes. All conditions were prepared in triplicate. Cultures were grown at 37° C. with orbital shaking at 200 rpm for all experiments.
Every 10-14 hours the cultures were diluted 1:100 into 5 ml of fresh M9 minimal medium with kanamycin, IPTG, and biofuel (where applicable). For the time-course assay, cultures were spun down at the completion of a growth cycle and plasmids were isolated. For end point competition assays, plasmid was isolated from the culture after 72 hours of serial dilution.
Custom microarrays (NimbleGen, Roche, USA) were used to measure the relative quantities of the efflux pumps present in the plasmid DNA isolated from the competition cultures. Arrays were designed so that they contained probes for all HAE1 annotated efflux pumps from all sequenced bacterial genomes. 12×135K arrays were used to allow for 12 experiments per slide.
Plasmid DNA was labeled and hybridized following the protocol for NimbleGen Comparative Genomic Hybridization Microarrays with minor modifications (Supporting Methods). Data were normalized using the standard settings for RMA analysis in the NimbleScan software. Probe values were averaged using a custom Matlab script (Mathworks, Inc.). […] For the positive hybridization control, all library plasmids were prepared individually and combined in vitro in equal proportions. For the negative hybridization control, a plasmid with the same vector backbone as those in the library, but no efflux pump, was isolated from DH1 ΔacrAB. Both hybridization controls were labeled and hybridized to the array using the methods described above.
This required the use of a co-solvent in order to accurately pipette small volumes. In both cases dimethylformamide (DMF) was used as the co-solvent. […] Other biofuels were added directly without the use of a co-solvent.

In series [2] the test system is E. coli DH1 ΔacrAB. The class given is cell-based. As to conditions: for effect of efflux pumps on tolerance to the biofuel (survival relative to pump-free negative control): top performing pump versus negative control, FIG. 3B and 3D. Here is the method:
Individual strains were adapted to M9 minimal medium as described in the Supporting Methods. […] The biofuel being tested was added directly to the cultures and they were grown overnight at 37° C. with orbital shaking. For end point measurements, the optical density was measured after 14 hours of growth in triplicate 5 ml cultures. For growth curve measurements, cultures were grown in triplicate in 24-well plates with 800 μl per well and optical density was measured every 10 minutes with a plate reader (BioTek Synergy 4, USA).

[3] abbreviates: 2% geranyl acetate, serial dilution competition.

With `CC(C)=CCC/C(C)=C/CO` [geraniol], in the series on E. coli DH1 ΔacrAB [1], the “toxicity of the biofuel to cell growth” value was “high and quite toxic”; the “biofuel level that inhibited growth” value amounted to 0.05 % v/v. Moreover, the “effect of efflux pumps on tolerance to the biofuel (survival relative to pump-free negative control)” value in the series on E. coli DH1 ΔacrAB [2] is on record as “increase survival several-fold”.
For the molecule `CC(=O)OC/C=C(\C)CCC=C(C)C` [geranyl acetate], the “biofuel level that inhibited growth” value with E. coli DH1 ΔacrAB [1] is reported as 2 % v/v. For the same molecule, the “effect of efflux pumps on tolerance to the biofuel (survival relative to pump-free negative control)” value in the series on E. coli DH1 ΔacrAB [2] is on record as “essentially confer immunity”.
For `CC(C)CCO` [isopentanol], in the series on E. coli DH1 ΔacrAB [1], the “toxicity of the biofuel to cell growth” value was “toxic” and the “biofuel level that inhibited growth” value is 0.25 % v/v. The “effect of efflux pumps on tolerance to the biofuel (survival relative to pump-free negative control)” value in the series with E. coli DH1 ΔacrAB [2] is “none of the pumps we tested confer an advantage”.
On to `CCCCO` [n-butanol], for which, in the series with E. coli DH1 ΔacrAB [1], the “toxicity of the biofuel to cell growth” value was “toxic” and the “biofuel level that inhibited growth” value stood at 0.5 % v/v. Further, the “effect of efflux pumps on tolerance to the biofuel (survival relative to pump-free negative control)” value with E. coli DH1 ΔacrAB [2] was “none of the pumps we tested confer an advantage”.

B1: AcrB: Escherichia coli K12 AcrAB efflux pump, plasmid-based copy (protein, UniProt P31224 1-1049, looked up)
Multidrug efflux pump subunit …: MPNFFIDRPIFAWVIAIIIMLAGGLAILKLPVAQYPTIAPPAVTISASYPGADAKTVQDTVTQVIEQNMNGIDNLMYMSSNSDSTGTVQITLTFESGTDADIAQVQVQNKLQLAMPLLPQEVQQQGVSVEKSSSSFLMVVGVINTDGTMTQEDISDYVAANMKDAISRTSGVGDVQLFGSQYAMRIWMNPNELNKFQLTPVDVITAIKAQNAQVAAGQLGGTPPVKGQQLNASIIAQTRLTSTEEFGKILLKVNQDGSRVLLRDVAKIELGGENYDIIAEFNGQPASGLGIKLATGANALDTAAAIRAELAKMEPFFPSGLKIVYPYDTTPFVKISIHEVVKTLVEAIILVFLVMYLFLQNFRATLIPTIAVPVVLLGTFAVLAAFGFSINTLTMFGMVLAIGLLVDDAIVVVENVERVMAEEGLPPKEATRKSMGQIQGALVGIAMVLSAVFVPMAFFGGSTGAIYRQFSITIVSAMALSVLVALILTPALCATMLKPIAKGDHGEGKKGFFGWFNRMFEKSTHHYTDSVGGILRSTGRYLVLYLIIVVGMAYLFVRLPSSFLPDEDQGVFMTMVQLPAGATQERTQKVLNEVTHYYLTKEKNNVESVFAVNGFGFAGRGQNTGIAFVSLKDWADRPGEENKVEAITMRATRAFSQIKDAMVFAFNLPAIVELGTATGFDFELIDQAGLGHEKLTQARNQLLAEAAKHPDMLTSVRPNGLEDTPQFKIDIDQEKAQALGVSINDINTTLGAAWGGSYVNDFIDRGRVKKVYVMSEAKYRMLPDDIGDWYVRAADGQMVPFSAFSSSRWEYGSPRLERYNGLPSMEILGQAAPGKSTGEAMELMEQLASKLPTGVGYDWTGMSYQERLSGNQAPSLYAISLIVVFLCLAALYESWSIPFSVMLVVPLGVIGALLAATFRGLTNDVYFQVGLLTTIGLSAKNAILIVEFAKDLMDKEGKGLIEATLDAVRMRLRPILMTSLAFILGVMPLVISTGAGSGAQNAVGTGVMGGMVTATVLAIFFVPVFFVVVRRRFSRKNEDIEHSHTVDHH
For B1, the “outcome of efflux pump in competition” value in the series with E. coli DH1 ΔacrAB [1] (0.025% limonene, 72 hours serial dilution) was “best exported”; with E. coli DH1 ΔacrAB [1] (0.05% geraniol, 72 hours serial dilution) it was “best exported”; with E. coli DH1 ΔacrAB [1] (setting [3]) it was “survived the competition”.

B2: MexB: Pseudomonas aeruginosa PAO1 MexAB-OprM multidrug efflux pump (protein, UniProt P52002 1-1046, looked up)
Multidrug resistance protein …: MSKFFIDRPIFAWVIALVIMLAGGLSILSLPVNQYPAIAPPAIAVQVSYPGASAETVQDTVVQVIEQQMNGIDNLRYISSESNSDGSMTITVTFEQGTDPDIAQVQVQNKLQLATPLLPQEVQRQGIRVTKAVKNFLMVVGVVSTDGSMTKEDLSNYIVSNIQDPLSRTKGVGDFQVFGSQYSMRIWLDPAKLNSYQLTPGDVSSAIQAQNVQISSGQLGGLPAVKGQQLNATIIGKTRLQTAEQFENILLKVNPDGSQVRLKDVADVGLGGQDYSINAQFNGSPASGIAIKLATGANALDTAKAIRQTIANLEPFMPQGMKVVYPYDTTPVVSASIHEVVKTLGEAILLVFLVMYLFLQNFRATLIPTIAVPVVLLGTFGVLAAFGFSINTLTMFGMVLAIGLLVDDAIVVVENVERVMAEEGLSPREAARKSMGQIQGALVGIAMVLSAVFLPMAFFGGSTGVIYRQFSITIVSAMALSVIVALILTPALCATMLKPIEKGDHGEHKGGFFGWFNRMFLSTTHGYERGVASILKHRAPYLLIYVVIVAGMIWMFTRIPTAFLPDEDQGVLFAQVQTPPGSSAERTQVVVDSMREYLLEKESSSVSSVFTVTGFNFAGRGQSSGMAFIMLKPWEERPGGENSVFELAKRAQMHFFSFKDAMVFAFAPPSVLELGNATGFDLFLQDQAGVGHEVLLQARNKFLMLAAQNPALQRVRPNGMSDEPQYKLEIDDEKASALGVSLADINSTVSIAWGSSYVNDFIDRGRVKRVYLQGRPDARMNPDDLSKWYVRNDKGEMVPFNAFATGKWEYGSPKLERYNGVPAMEILGEPAPGLSSGDAMAAVEEIVKQLPKGVGYSWTGLSYEERLSGSQAPALYALSLLVVFLCLAALYESWSIPFSVMLVVPLGVIGALLATSMRGLSNDVFFQVGLLTTIGLSAKNAILIVEFAKELHEQGKGIVEAAIEACRMRLRPIVMTSLAFILGVVPLAISTGAGSGSQHAIGTGVIGGMVTATVLAIFWVPLFYVAVSTLFKDEASKQQASVEKGQ
As to B2, the “outcome of efflux pump in competition” value with E. coli DH1 ΔacrAB [1] (setting [3]) is recorded as “survived the competition”; in the series with E. coli DH1 ΔacrAB [1] (2% α-pinene, 72 hours serial dilution), “borderline survivor”. The “growth of individual pump-expressing strain” value in the series with E. coli DH1 ΔacrAB [2] (with 2% α-pinene, grown independently) is “survives well in α-pinene for the first 10 hours”.
